Experimental data reported in patent US20250230193A1, “CYCLIC COMPOUND HAVING SELECTIVE KRAS INHIBITORY EFFECT ON HRAS AND NRAS” (CHUGAI SEIYAKU KABUSHIKI KAISHA, priority 2022, published 2025).

Experiments:
[1] = molecular target: GDP-bound NRAS wild-type protein (Homo sapiens, UniProt P01111); experiment: Binding to NRAS by surface plasmon resonance (SPR), Single Cycle Kinetics; conditions: KD ratio NRAS/KRAS, class symbols
[2] = molecular target: GDP-bound HRAS wild-type protein (Homo sapiens, UniProt P01112); experiment: Binding to HRAS by surface plasmon resonance (SPR), Single Cycle Kinetics; conditions: KD ratio HRAS/KRAS, class symbols
Sequence of GDP-bound HRAS wild-type protein (P01112 whole entry): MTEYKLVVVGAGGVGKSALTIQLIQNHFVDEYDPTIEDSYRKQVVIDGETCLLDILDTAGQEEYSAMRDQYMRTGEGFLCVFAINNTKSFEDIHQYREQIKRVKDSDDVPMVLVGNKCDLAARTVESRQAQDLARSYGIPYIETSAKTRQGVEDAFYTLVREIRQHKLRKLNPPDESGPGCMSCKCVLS

Sequence of GDP-bound NRAS wild-type protein (P01111 whole entry): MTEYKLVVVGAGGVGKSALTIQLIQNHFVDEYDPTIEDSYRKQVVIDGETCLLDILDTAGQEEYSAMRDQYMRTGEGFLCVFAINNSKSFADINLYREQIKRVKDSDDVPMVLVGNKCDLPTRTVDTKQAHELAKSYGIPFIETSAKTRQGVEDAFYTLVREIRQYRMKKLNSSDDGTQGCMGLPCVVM

Row | SMILES | NRAS/KRAS (ratio of KD value with respect to GDP-bound NRAS wild-type protein to KD value with respect to KRAS) [1] | HRAS/KRAS (ratio of KD value with respect to GDP-bound HRAS wild-type protein to KD value with respect to KRAS) [2]
1 | CCC(CC)[C@H]1C(=O)N(C)[C@H](C(=O)N(C)C)CC(=O)N(C)[C@@H](COC)C(=O)N[C@@H]([C@@H](C)CC)C(=O)N(C2CC2)CC(=O)N(C)[C@H]2C/C=C\CCN(C2=O)[C@@H](Cc2ccc(C)cc2)C(=O)N(C)CC(=O)N[C@@H](CCc2cc(F)c(C(F)(F)F)c(F)c2)C(=O)N2C[C@H](OC3CCCC3)C[C@H]2C(=O)NC2(CC(C)(C)C2)C(=O)N1C [PP2619] | AA (a compound having 20 or more is denoted as AA) | A (a compound having 10 or more and less than 20 is denoted as A)
2 | CC[C@H](C)[C@@H]1NC(=O)[C@H](COC)N(C)C(=O)C[C@@H](C(=O)N(C)C)N(C)C(=O)[C@H](C2CCCC2)N(C)C(=O)C2(CC(C)(C)C2)NC(=O)[C@@H]2C[C@@H](OC3CCC3)CN2C(=O)[C@H](CCc2cc(F)c(C(F)(F)F)c(F)c2)NC(=O)CN(C)C(=O)[C@H](CC2CCC(F)(F)CC2)N2CC/C=C\C[C@@H](C2=O)N(C)C(=O)CN(C2CC2)C1=O [PP2622] | A (a compound having 10 or more and less than 20 is denoted as A) | B (a compound having 3 or more and less than 10 is denoted as B)
3 | CC[C@H](C)[C@@H]1NC(=O)[C@H](COC)N(C)C(=O)C[C@@H](C(=O)N(C)C)N(C)C(=O)[C@H](C2CCCC2)N(C)C(=O)C2(CC(C)(C)C2)NC(=O)[C@@H]2C[C@@H](OC3CCC3)CN2C(=O)[C@H](CCc2ccc(Cl)c(Cl)c2)NC(=O)CN(C)C(=O)[C@H](CC2CCC(F)(F)CC2)N2CC/C=C\C[C@@H](C2=O)N(C)C(=O)CN(C2CC2)C1=O [PP2624] | A (a compound having 10 or more and less than 20 is denoted as A) | A (a compound having 10 or more and less than 20 is denoted as A)
4 | CC[C@H](C)[C@@H]1NC(=O)[C@H](COC)N(C)C(=O)C[C@@H](C(=O)N(C)C)N(C)C(=O)[C@H](C2CCCC2)N(C)C(=O)C2(CC(C)(C)C2)NC(=O)[C@@H]2C[C@@H](OC3CCCC3)CN2C(=O)[C@H](CCc2cc(F)c(C(F)(F)F)c(F)c2)NC(=O)CN(C)C(=O)[C@H](Cc2ccc(C)cc2)N2CC/C=C\C[C@@H](C2=O)N(C)C(=O)CN(C2CC2)C1=O [PP2626] | A (a compound having 10 or more and less than 20 is denoted as A) | A (a compound having 10 or more and less than 20 is denoted as A)
5 | CCC(CC)[C@H]1C(=O)N(C)[C@H](C(=O)N(C)C)CC(=O)N(C)[C@@H](COC)C(=O)N[C@@H]([C@@H](C)CC)C(=O)N(C2CC2)CC(=O)N(C)[C@H]2C/C=C\CCN(C2=O)[C@@H](CC2CCC(F)(F)CC2)C(=O)N(C)CC(=O)N[C@@H](CCc2cc(F)c(C(F)(F)F)c(F)c2)C(=O)N2C[C@H](OC3CCCC3)C[C@H]2C(=O)NC2(CC(C)(C)C2)C(=O)N1C [PP2627] | A (a compound having 10 or more and less than 20 is denoted as A) | A (a compound having 10 or more and less than 20 is denoted as A)
6 | CC[C@H](C)[C@@H]1NC(=O)[C@H](COC)N(C)C(=O)C[C@@H](C(=O)N(C)C)N(C)C(=O)[C@H](C2CCCC2)N(C)C(=O)C2(CC(C)(C)C2)NC(=O)[C@@H]2C[C@@H](OC3CCCC3)CN2C(=O)[C@H](CCc2ccc(Cl)c(Cl)c2)NC(=O)CN(C)C(=O)[C@H](Cc2ccc(C)cc2)N2CC/C=C\C[C@@H](C2=O)N(C)C(=O)CN(C2CC2)C1=O [PP2628] | A (a compound having 10 or more and less than 20 is denoted as A) | A (a compound having 10 or more and less than 20 is denoted as A)
7 | CC[C@H](C)[C@@H]1NC(=O)[C@H](COC)N(C)C(=O)C[C@@H](C(=O)N(C)C)N(C)C(=O)[C@H](C2CCCC2)N(C)C(=O)C2(CC(C)(C)C2)NC(=O)[C@@H]2C[C@@H](OC3CCCC3)CN2C(=O)[C@H](CCc2cc(F)c(C(F)(F)F)c(F)c2)NC(=O)CN(C)C(=O)[C@H](CC2CCCCC2)N2CC/C=C\C[C@@H](C2=O)N(C)C(=O)CN(C2CC2)C1=O [PP2630] | A (a compound having 10 or more and less than 20 is denoted as A) | B (a compound having 3 or more and less than 10 is denoted as B)
8 | CCC(CC)[C@H]1C(=O)N(C)[C@H](C(=O)N(C)C)CC(=O)N(C)[C@@H](COC)C(=O)N[C@@H]([C@@H](C)CC)C(=O)N(C2CC2)CC(=O)N(C)[C@H]2C/C=C\CCN(C2=O)[C@@H](Cc2ccc(C(F)F)cc2)C(=O)N(C)CC(=O)N[C@@H](CCc2cc(F)c(C(F)(F)F)c(F)c2)C(=O)N2C[C@H](OC3CCC3)C[C@H]2C(=O)NC2(CC(C)(C)C2)C(=O)N1C [PP2631] | AA (a compound having 20 or more is denoted as AA) | A (a compound having 10 or more and less than 20 is denoted as A)
9 | CCC(CC)[C@H]1C(=O)N(C)[C@H](C(=O)N(C)C)CC(=O)N(C)[C@@H](COC)C(=O)N[C@@H]([C@@H](C)CC)C(=O)N(C2CC2)CC(=O)N(C)[C@H]2C/C=C\CCN(C2=O)[C@@H](Cc2ccc(C(F)F)cc2)C(=O)N(C)CC(=O)N[C@@H](CCc2cc(F)c(C(F)(F)F)c(F)c2)C(=O)N2C[C@H](OC3CCCC3)C[C@H]2C(=O)NC2(CC(C)(C)C2)C(=O)N1C [PP2633] | AA (a compound having 20 or more is denoted as AA) | A (a compound having 10 or more and less than 20 is denoted as A)
10 | CC[C@H](C)[C@@H]1NC(=O)[C@H](COC)N(C)C(=O)C[C@@H](C(=O)N(C)C)N(C)C(=O)[C@H](C2CCCC2)N(C)C(=O)C2(CC(C)(C)C2)NC(=O)[C@@H]2C[C@@H](OC3CCCC3)CN2C(=O)[C@H](CCc2cc(F)c(C(F)(F)F)c(F)c2)NC(=O)CN(C)C(=O)[C@H](CC2CCC(F)(F)CC2)N2CC/C=C\C[C@@H](C2=O)N(C)C(=O)CN(C2CC2)C1=O [PP2634] | A (a compound having 10 or more and less than 20 is denoted as A) | A (a compound having 10 or more and less than 20 is denoted as A)
11 | CCO[C@@H]1C[C@H]2C(=O)NC3(CC(C)(C)C3)C(=O)N(C)[C@@H](C(CC)CC)C(=O)N(C)[C@H](C(=O)N(C)C)CC(=O)N(C)[C@@H](COC)C(=O)N[C@@H]([C@@H](C)CC)C(=O)N3CCC[C@H]3C(=O)N(C)[C@H]3C/C=C\CCN(C3=O)[C@@H](Cc3ccc(C(F)(F)F)cc3)C(=O)N(C)CC(=O)N[C@@H](CCc3ccc(Cl)c(Cl)c3)C(=O)N2C1 [PP2635] | AA (a compound having 20 or more is denoted as AA) | A (a compound having 10 or more and less than 20 is denoted as A)
12 | CCC[C@H]1C(=O)N[C@@H]([C@@H](C)CC)C(=O)N2CCC[C@H]2C(=O)N(C)[C@H]2C/C=C\CCN(C2=O)[C@@H](Cc2ccc(C(F)F)cc2)C(=O)N(C)CC(=O)N[C@@H](CCc2ccc(Cl)c(Cl)c2)C(=O)N2C[C@H](OCC)C[C@H]2C(=O)NC2(CC(C)(C)C2)C(=O)N(C)[C@@H](C(CC)CC)C(=O)N(C)[C@H](C(=O)N(C)C)CC(=O)N1C [PP2637] | AA (a compound having 20 or more is denoted as AA) | A (a compound having 10 or more and less than 20 is denoted as A)
13 | CCC[C@H]1C(=O)N[C@@H]([C@@H](C)CC)C(=O)N2CCC[C@H]2C(=O)N(C)[C@H]2C/C=C\CCN(C2=O)[C@@H](Cc2ccc(C)cc2)C(=O)N(C)CC(=O)N[C@@H](CCc2ccc(Cl)c(Cl)c2)C(=O)N2C[C@H](OCC)C[C@H]2C(=O)NC2(CC(C)(C)C2)C(=O)N(C)[C@@H](C(CC)CC)C(=O)N(C)[C@H](C(=O)N(C)C)CC(=O)N1C [PP2638] | AA (a compound having 20 or more is denoted as AA) | A (a compound having 10 or more and less than 20 is denoted as A)
14 | CCC(CC)[C@H]1C(=O)N(C)[C@H](C(=O)N(C)C)CC(=O)N(C)[C@@H](COC)C(=O)N[C@@H]([C@@H](C)CC)C(=O)N2CCC[C@H]2C(=O)N(C)[C@H]2C/C=C\CCN(C2=O)[C@@H](Cc2ccc(C(F)(F)F)cc2)C(=O)N(C)CC(=O)N[C@@H](CCc2ccc(Cl)c(Cl)c2)C(=O)N2C[C@H](OC(C)C)C[C@H]2C(=O)NC2(CC(C)(C)C2)C(=O)N1C [PP2639] | AA (a compound having 20 or more is denoted as AA) | A (a compound having 10 or more and less than 20 is denoted as A)
15 | CCC[C@H]1C(=O)N[C@@H]([C@@H](C)CC)C(=O)N2CCC[C@H]2C(=O)N(C)[C@H]2C/C=C\CCN(C2=O)[C@@H](Cc2ccc(C(F)F)cc2)C(=O)N(C)CC(=O)N[C@@H](CCc2ccc(Cl)c(Cl)c2)C(=O)N2C[C@H](OC(C)C)C[C@H]2C(=O)NC2(CC(C)(C)C2)C(=O)N(C)[C@@H](C(CC)CC)C(=O)N(C)[C@H](C(=O)N(C)C)CC(=O)N1C [PP2640] | AA (a compound having 20 or more is denoted as AA) | A (a compound having 10 or more and less than 20 is denoted as A)
